Test results taken from US20230172885A1, “THIOL-CONTAINING COMPOUNDS FOR USE IN TREATING CORONAVIRUS” (priority 2020, published 2023).
Entries after “also recorded” stand apart in the source; their conditions may differ. Where two headings read alike, the source gives them in different places.

How the values were obtained:
[1] = cited from earlier work
[2] = target: T1, RBD^original (SARS-CoV-2 receptor binding domain) binding to ACE2 (Severe acute respiratory syndrome coronavirus 2, UniProt P0DTC2); details: for inhibition of binding of RBD^original to ACE2: RBD exposed to drug for 60 minutes, 0 to 20 mM; for binding of RBD^original to ACE2 at one and two hours post exposure and wash: drug at 5 mM for 1 hour, three washes
T1 construct: ACRO Biosystems); purchased ACRO Biosystems

[3] = target: T2, SARS-CoV-2 spike protein (SARS-2-S) binding to ACE2 (Severe acute respiratory syndrome coronavirus 2, UniProt P0DTC2)
T2 construct: Recombinantly expressed RBD of SARS-2-S was first immobilized to a surface

[4] = system: VSV pseudotype bearing the SARS-2-S protein (VSV-S); type: cell-based, SARS-CoV-2
[5] = system: SARS-2-S pseudovirus (rVSV-ΔG luciferase); type: cell-based; details: pseudovirus pre-incubated with 1.56-100 mM drug for 2 hours, 66-fold dilution
[6] = system: SARS-CoV-2, isolate USA-WA1/2020; type: cell-based
[7] = system: SARS CoV2 (isolate USA-WA1/2020); design: species or system Syrian hamsters (Mesocricetus auratus); details: hamster, in vivo
[8] = type: physicochemical; details: 11 mg/mL in 20 mM sodium citrate, pH 4.5, 38.5 mM NaCl; Aerogen Solo vibrating mesh nebulizer

CC(S)C(=O)NCC(=O)O (stereo not shown) [Tiopronin]
pKa (thiol group) [1]: 8.7

O=S(=O)([O-])CCS.[Na+] [MESNA, 2-mercaptoethane sulfonate, sodium salt]
inhibition of binding of RBD^original to ACE2 [2]: strong inhibitory effects | binding of RBD^original to ACE2 at one and two hours post exposure and wash [2]: binding inhibition was retained for two hours | antiviral efficacy in vitro compared with NAC (SARS-CoV-2): superior antiviral efficacy in vitro

NCCCNCCS [WR-1065]
inhibition of binding of RBD^original to ACE2 [2]: strong inhibitory effects | binding of RBD^original to ACE2 at one and two hours post exposure and wash [2]: binding inhibition was retained for two hours | pKa (thiol group) [1]: 7.7 (WR-1065)

CC(=O)N[C@@H](CS)C(=O)O [NAC, N-acetyl-L-cysteine]
inhibition of binding of ACE2 to SARS-2-S [3]: inhibit binding | cell entry inhibition of VSV-S, only 5 and 25 mM [4]: significant cell entry inhibition | inhibition of VSV-S cellular entry [4]: inhibited VSV-S cellular entry; also recorded: inhibited from entering

O=C(O)C(S)C(S)C(=O)O (stereo not shown) [Dimercaptosuccinic acid]
pKa (thiol group) [1]: 8.9 | pKa (thiol group) ([1]; dithiol drugs, second thiol): 10.8

N[C@@H](CSCC(=O)O)C(=O)O [Carbocysteine]
pseudovirus cell entry, pseudovirus pre-treatment [5]: did not inhibit viral cell entry

NCCCNCCSP(=O)(O)O [Amifostine]
pseudovirus cell entry, pseudovirus pre-treatment [5]: did not inhibit viral cell entry

O[C@@H]1[C@@H](O)[C@@H](O[C@H]2O[C@H](CS)[C@@H](O)[C@H](O)[C@H]2O)O[C@H](CS)[C@H]1O [MUC-31, 6,6′-dithiotrehalose]
binding inhibition after drug is washed out of the reaction mixture [3]: binding inhibition persists following drug contact | inhibition of binding of ACE2 to SARS-2-S [3]: inhibit binding | potency in inhibiting ACE2 binding compared to NAC [3]: stronger potency | effectiveness for inhibiting viral entry compared with NAC [4]: more effective than NAC | inhibition of VSV-S cellular entry [4]: inhibited VSV-S cellular entry; also recorded: inhibited from entering | inhibition of VSV-S entry, all three concentrations [4]: potent inhibition | inhibition of binding of RBD^original to ACE2 [2]: decreased binding; also recorded: strong inhibitory effects | binding of RBD^original to ACE2 at one and two hours post exposure and wash [2]: binding inhibition was retained for two hours | pseudovirus cell entry, pseudovirus pre-treatment [5]: decrease the entry efficiency | cytopathic effects (CPE) in virus-infected cells, virus exposed to drug prior to infection [6]: inhibit live virus infection; also recorded: significantly inhibited | SARS-CoV2 viral titers (viral RNA, RT-qPCR) in lungs ([7]; 0.5 mg/kg): decreases; also recorded: significantly lower | interleukin-6 levels in lung lavage ([7]; 0.5 mg/kg): lower than control | lung weights normalized to terminal body weights ([7]; 0.5 mg/kg): lower than in control groups | macrophages in BAL fluid ([7]; 0.5 mg/kg): decreases | severity of SARS-CoV2 lung inflammation ([7]; 0.5 mg/kg): decreased; also recorded: limit SARS-COV-2-associated lung inflammation | total leukocyte counts in the bronchoalveolar lavage (BAL) fluid ([7]; 0.5 mg/kg): lower than control | average mass median aerodynamic diameter (MMAD) of the exposure atmosphere [8]: 2.60 µm

CC(C)(S)[C@@H](N)C(=O)O [Penicillamine]
pKa (thiol group) [1]: 10.5

N[C@@H](CCC(=O)N[C@@H](CS)C(=O)NCC(=O)O)C(=O)O [Glutathione]
pKa (thiol group) [1]: 9.2

OCC(S)CS (stereo not shown) [2,3-Dimercaprol]
pKa (thiol group) ([1]; dithiol drugs, second thiol): 10.6

CC(C)(S)C(=O)N[C@@H](CS)C(=O)O [Bucillamine]
pKa (thiol group) [1]: 8.4 | pKa (thiol group) ([1]; dithiol drugs, second thiol): 10.2

NCCS [Cysteamine]
inhibition of binding of RBD^original to ACE2 [2]: decreased binding; also recorded: strong inhibitory effects | binding of RBD^original to ACE2 at one and two hours post exposure and wash [2]: binding inhibition was retained for two hours | pseudovirus cell entry, pseudovirus pre-treatment [5]: decrease the entry efficiency | cytopathic effects (CPE) in virus-infected cells, virus exposed to drug prior to infection [6]: inhibit live virus infection; also recorded: significantly inhibited | potency among thiol drugs in the in vitro assays (SARS-CoV-2): most potent thiol drug | SARS-CoV2 viral titers (viral RNA, RT-qPCR) in lungs [7]: did not decrease; also recorded: does not decrease | interleukin-6 levels in lung lavage [7]: lower than control | lung weights normalized to terminal body weights [7]: lower than in control groups | lymphocytes in BAL fluid [7]: decreases | neutrophils in BAL fluid [7]: decreases | severity of SARS-CoV2 lung inflammation [7]: did decrease; also recorded: decreased; also recorded: has anti-inflammatory effects | total leukocyte counts in the bronchoalveolar lavage (BAL) fluid [7]: lower than control | pKa (thiol group) [1]: 8.2
